Like-named read-outs stand apart in the source and are kept apart here.
What was measured:
[1] = target: human PHD2184-418 (Homo sapiens (Human), UniProt Q9GZT9); assay: PHD2 inhibitory test (fluorescence polarization, binding between PHD2 and HIF-1α); conditions: human PHD2184-418, FITC-labeled HIF-1α556-574, 2 μM 2-oxoglutarate, 37° C. 60 minutes
How it was run: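 N-His-tagged human PHD2 (residues 184–418, E. coli-expressed) was preincubated with compound, then FITC-Ahx-HIF-1α556-574 peptide was added in pH 7.4 HEPES buffer with 10 μM MnCl2 and 2 μM 2-oxoglutarate. After 60 min at 37 °C, fluorescence polarization (ex 470/em 530 nm) was read. Inhibition was calculated against compound-free wells.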

[2] = test system: TNBS induced colitis model rat; assay: Therapeutic effect in TNBS induced colitis model rat (intestinal permeability of FITC); format: in vivo; conditions: po, 72 h, 3 mg/kg orally once a day for 3 days, SD rats, mean, test compounds-free group 0, TNBS-untreated group 100, read-out: Inhibition (%): suppressive rate on the intestinal permeability
Description: Test Example 2 Therapeutic Effect in Colitis Model
(1) TNBS Induced Colitis Model Rat
SD rats: 8-weeks-old male SLC (Japan SLC) were used. Under pentobarbital anesthesia, 300 μL of TNBS (28 mg/mL) prepared by 50% ethanol was administered at a point 8 cm from anus in large intestine to cause inflammation. To the solvent-treated group was administrated 300 μL of 50% ethanol. Animals were fasted for 48 hours prior to administration of TNBS. Test compounds (3 mg/kg) prepared by 0.05% methylcellulose solution were orally administered once a day from next day, and it was administered for a total of 3 days. After administering for 3 days, 50 mg/kg FITC was orally administered at 4 hours after administration. Blood samples were collected from jugular vein under isoflurane anesthesia after 4 hours. The serum was centrifuged and fluorescence intensity was detected by PHERAstar FSX (BMG Labtech) to measure the concentration of FITC permeating into circulating blood through the mesentery. The suppressive rate on the intestinal permeability of test compounds was calculated based on the value of test compounds-free group as 0 and the value of TNBS-untreated group as 100.

[3] = Rat PK study: concentration of compounds in large intestine tissue and plasma; format: in vivo; conditions: male, SD, 3 mg/kg oral, 8 hours
Description: Test Example 3 Concentration of Compounds in Large Intestine Tissue
Test compounds (3 mg/kg/5 mL) prepared by 0.05% methylcellulose were orally administered to non-fasted rats (SD, 8-weeks-old, male, Japan SLC). Blood samples were collected from jugular vein at 0.25, 0.5, 1, 2, 4, 6 and 8 hours after the administration. Laparotomy was performed under isoflurane anesthesia and large intestine was isolated. Collected distal large intestine (about 5 cm) was cut open, and then the large intestine was washed with saline on a dish. After washing, the large intestine was minced by a small scissors. About 150 mg thereof was moved to tube. To the tube was added 100 μL of saline, the mixture was homogenized using shake master (1000 rpm×30 minutes). Samples were prepared by the addition with quadruple volume of saline as final volume. The concentrations of the test compound in large intestine tissue and plasma were measured through a quantitative analysis using liquid chromatography-mass spectrometry (LC/MS).

Chain of human PHD2184-418 (Q9GZT9 184-418): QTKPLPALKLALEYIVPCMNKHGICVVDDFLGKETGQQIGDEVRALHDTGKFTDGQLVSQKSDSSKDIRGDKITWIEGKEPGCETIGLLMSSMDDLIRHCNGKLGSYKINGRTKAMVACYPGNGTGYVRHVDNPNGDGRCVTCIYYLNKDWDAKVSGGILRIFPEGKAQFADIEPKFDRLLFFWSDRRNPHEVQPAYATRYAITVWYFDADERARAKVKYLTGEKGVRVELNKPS

## Cn1ccnc1CN1CC[C@H](n2c(=O)n(-c3ccc(-c4ccc(C(=O)O)cc4)nc3)c3cccnc32)C1 [Example 41, (S)-4-(5-(3-(1-((1-Methyl-1H-imidazol-2-yl)methyl)pyrrolidin-3-yl)-2-oxo-2,3-dihydro-1H-imidazo[4,5-b]pyridin-1-yl)pyridin-2-yl)benzoic acid]
[1]
  IC50: 1460 nM
[2]
  inhibition in vivo at 3 mg/kg: 74%

## Cn1c(C(=O)O)cnc1CN1CC[C@H](n2c(=O)n(-c3cnc4ccccc4c3)c3cccnc32)C1 [Example 66, (S)-1-Methyl-2-((3-(2-oxo-1-(quinolin-3-yl)-1,2-dihydro-3H-imidazo[4,5-b]pyridin-3-yl)pyrrolidin-1-yl)methyl)-1H-imidazole-5-carboxylic acid]
[1]
  IC50: 1170 nM

## Cn1c(C(=O)O)cnc1CN1CC[C@H](n2c(=O)n(-c3ccc(N4CCOCC4)cc3)c3cccnc32)C1 [Example 67, (S)-1-Methyl-2-((3-(1-(4-morpholinophenyl)-2-oxo-1,2-dihydro-3H-imidazo[4,5-b]pyridin-3-yl)pyrrolidin-1-yl)methyl)-1H-imidazole-5-carboxylic acid]
[1]
  IC50: 520 nM

## Cn1c(C(=O)O)cnc1CN1CC[C@H](n2c(=O)n(C3CCC(c4ccccc4)CC3)c3cccnc32)C1 (stereo partly drawn) [Example 68, (S)-1-Methyl-2-((3-(2-oxo-1-(4-phenylcyclohexyl)-1,2-dihydro-3H-imidazo[4,5-b]pyridin-3-yl)pyrrolidin-1-yl)methyl)-1H-imidazole-5-carboxylic acid]
[1]
  IC50: 8150 nM

## C=Cc1ccc(-n2c(=O)n([C@H]3CCN(Cc4ncc(C(=O)O)n4C)C3)c3ncccc32)cc1 [Example 69, (S)-1-Methyl-2-((3-(2-oxo-1-(4-vinylphenyl)-1,2-dihydro-3H-imidazo[4,5-b]pyridin-3-yl)pyrrolidin-1-yl)methyl)-1H-imidazole-5-carboxylic acid]
[1]
  IC50: 500 nM

## Cn1c(C(=O)O)cnc1CN1CC[C@H](n2c(=O)n(-c3ccsc3)c3cccnc32)C1 [Example 70, (S)-1-Methyl-2-((3-(2-oxo-1-(thiophen-3-yl)-1,2-dihydro-3H-imidazo[4,5-b]pyridin-3-yl)pyrrolidin-1-yl)methyl)-1H-imidazole-5-carboxylic acid]
[1]
  IC50: 1450 nM

## Cn1c(C(=O)O)cnc1CN1CC[C@H](n2c(=O)n(Cc3ccccc3)c3cccnc32)C1 [Example 71, (S)-2-((3-(1-Benzyl-2-oxo-1,2-dihydro-3H-imidazo[4,5-b]pyridin-3-yl)pyrrolidin-1-yl)methyl)-1-methyl-1H-imidazole-5-carboxylic acid]
[1]
  IC50: 13900 nM

## Cn1c(C(=O)O)cnc1CN1CC[C@H](n2c(=O)n(-c3ccc(O)cc3)c3cccnc32)C1 [Example 73, (S)-2-((3-(1-(4-Hydroxyphenyl)-2-oxo-1,2-dihydro-3H-imidazo[4,5-b]pyridin-3-yl)pyrrolidin-1-yl)methyl)-1-methyl-1H-imidazole-5-carboxylic acid]
[1]
  IC50: 3000 nM

## Cn1c(C(=O)O)cnc1CN1CC[C@H](n2c(=O)n(-c3ccc(-c4ccc(NS(C)(=O)=O)cc4)cc3)c3cccnc32)C1 [Example 74, (S)-1-Methyl-2-((3-(1-(4′-(methylsulfonamido)-[1,1′-biphenyl]-4-yl)-2-oxo-1,2-dihydro-3H-imidazo[4,5-b]pyridin-3-yl)pyrrolidin-1-yl)methyl)-1H-imidazole-5-carboxylic acid]
[1]
  IC50: 1850 nM

## Cc1cccnc1CN1CC[C@H](n2c(=O)n(-c3ccc(C(=O)NCC(=O)O)cc3)c3cccnc32)C1 [Example 75, (S)-(4-(3-(1-((3-Methylpyridin-2-yl)methyl)pyrrolidin-3-yl)-2-oxo-2,3-dihydro-1H-imidazo[4,5-b]pyridin-1-yl)benzoyl)glycine]
[1]
  IC50: 99900 nM

## Cn1c(C(=O)O)cnc1CN1CC[C@H](n2c(=O)n(-c3ccc(-c4ccccc4)cc3)c3ccc(C(=O)NC4CCOCC4)nc32)C1 [Example 76, (S)-2-((3-(1-([1,1′-Biphenyl]-4-yl)-2-oxo-5-((tetrahydro-2H-pyran-4-yl)carbamoyl)-1,2-dihydro-3H-imidazo[4,5-b]pyridin-3-yl)pyrrolidin-1-yl)methyl)-1-methyl-1H-imidazole-5-carboxylic acid]
[1]
  IC50: 9740 nM

## Cn1c(C(=O)O)cnc1CN1CC[C@H](n2c(=O)n(-c3ccc(-c4ccccc4)cc3)c3ccc(C(=O)NCC(=O)O)nc32)C1 [Example 77, (S)-2-((3-(1-([1,1′-Biphenyl]-4-yl)-5-((carboxymethyl)carbamoyl)-2-oxo-1,2-dihydro-3H-imidazo[4,5-b]pyridin-3-yl)pyrrolidin-1-yl)methyl)-1-methyl-1H-imidazole-5-carboxylic acid]
[1]
  IC50: 610 nM

## Cn1c(C(=O)O)cnc1CN1CC[C@H](n2c(=O)n(-c3ccc(C(=O)NCC(=O)O)nc3)c3cccnc32)C1 [Example 78, (S)-2-((3-(1-(6-((Carboxymethyl)carbamoyl)pyridin-3-yl)-2-oxo-1,2-dihydro-3H-imidazo[4,5-b]pyridin-3-yl)pyrrolidin-1-yl)methyl)-1-methyl-1H-imidazole-5-carboxylic acid]
[1]
  IC50: 11000 nM

## Cn1c(C#N)cnc1CN1CC[C@H](n2c(=O)n(-c3ccc(-c4ccncc4)cc3)c3cccnc32)C1 [Example 80, (S)-1-Methyl-2-((3-(2-oxo-1-(4-(pyridin-4-yl)phenyl)-1,2-dihydro-3H-imidazo[4,5-b]pyridin-3-yl)pyrrolidin-1-yl)methyl)-1H-imidazole-5-carbonitrile]
[1]
  IC50: 65900 nM

## Cn1c(C(=O)O)cnc1CN1CC[C@H](n2c(=O)n(-c3ccc(-c4ccc(O)cc4)cc3)c3cccnc32)C1 [Example 82, (S)-2-((3-(1-(4′-Hydroxy-[1,1′-biphenyl]-4-yl)-2-oxo-1,2-dihydro-3H-imidazo[4,5-b]pyridin-3-yl)pyrrolidin-1-yl)methyl)-1-methyl-1H-imidazole-5-carboxylic acid]
[1]
  IC50: 130 nM
[2]
  inhibition in vivo at 3 mg/kg: 96%

## Cn1c(C(=O)O)cnc1CN1CC[C@H](n2c(=O)n(-c3ccc(-c4ccc(C(=O)O)cc4)nc3)c3cccnc32)C1 [Example 85, (S)-2-((3-(1-(6-(4-Carboxyphenyl)pyridin-3-yl)-2-oxo-1,2-dihydro-3H-imidazo[4,5-b]pyridin-3-yl)pyrrolidin-1-yl)methyl)-1-methyl-1H-imidazole-5-carboxylic acid]
[2]
  inhibition in vivo at 3 mg/kg: 101%
[3]; large intestine tissue (distal large intestine), read-out: Colon: concentrations of the test compound in large intestine tissue after 8 hours
  concentration at 8 h: 164 ng/g
[3]; large intestine tissue / plasma, read-out: C/P: ratio of the above Colon and Plasma
  Kp at 8 h: > 164
[3]; plasma, read-out: Plasma: plasma test compound concentration after 8 hours
  concentration at 8 h: < 1 ng/mL

## Cn1c(C(=O)O)cnc1CN1CC[C@H](n2c(=O)n(-c3ccc(-c4ccccc4)cc3)c3cccnc32)C1 [Example 86, (S)-2-((3-(1-([1,1′-Biphenyl]-4-yl)-2-oxo-1,2-dihydro-3H-imidazo[4,5-b]pyridin-3-yl)pyrrolidin-1-yl)methyl)-1-methyl-1H-imidazole-5-carboxylic acid]
[1]
  IC50: 270 nM

## Cn1c(C(=O)O)cnc1CN1CC[C@H](n2c(=O)n(-c3ccccc3)c3cccnc32)C1 [Example 87, (S)-1-Methyl-2-((3-(2-oxo-1-phenyl-1,2-dihydro-3H-imidazo[4,5-b]pyridin-3-yl)pyrrolidin-1-yl)methyl)-1H-imidazole-5-carboxylic acid]
[1]
  IC50: 3990 nM

## Cn1c(C(=O)O)cnc1CN1CC[C@@H](n2c(=O)n(-c3ccc(-c4ccc(C(=O)O)cc4)nc3)c3cccnc32)C1 [Example 88, (R)-2-((3-(1-(6-(4-Carboxyphenyl)pyridin-3-yl)-2-oxo-1,2-dihydro-3H-imidazo[4,5-b]pyridin-3-yl)pyrrolidin-1-yl)methyl)-1-methyl-1H-imidazole-5-carboxylic acid]
[1]
  IC50: 270 nM

## Cc1cccnc1CN1CC[C@H](n2c(=O)n(-c3ccc(-c4ccc(O)cc4)cc3)c3cccnc32)C1 [Example 89, (S)-1-(4′-Hydroxy-[1,1′-biphenyl]-4-yl)-3-(1-((3-methylpyridin-2-yl)methyl)pyrrolidin-3-yl)-1,3-dihydro-2H-imidazo[4,5-b]pyridin-2-one]
[1]
  IC50: 3170 nM

## Cc1cccnc1CN1CC[C@H](n2c(=O)n(-c3ccc(-c4ccncc4)cc3)c3cccnc32)C1 [Example 90, (S)-3-(1-((3-Methylpyridin-2-yl)methyl)pyrrolidin-3-yl)-1-(4-(pyridin-4-yl)phenyl)-1,3-dihydro-2H-imidazo[4,5-b]pyridin-2-one]
[1]
  IC50: 7460 nM

From patent publication US12077531B2, “Imidazopyridinone compound” (KISSEI PHARMACEUTICAL CO., LTD., priority 2018, dated 2024)
